Reference: patent publication US20120028278A1, “CELL LINES EXPRESSING GUANYLATE CYCLASE-C AND METHODS OF USING THEM” (CHROMOCELL CORPORATION, priority 2009, published 2012)
Where a SMILES comes first, the peptide text is derived from it. Bridges are numbered along the chain shown (N, C = ends).

Columns and labels:
human GC-C [1] = biological target: T1, human GC-C (Homo sapiens, UniProt P25092, F281L); experiment: competitive ELISA for detection of cGMP in the produced GC-C-expressing cell line; type: cell-based; details: 100 nM guanylin; cell lysate from GC-C-expressing cell line; FIG. 1
T1 construct: expressed in transfected cells; CMV promoter
T1 sequence (P25092 24-1073 F281L): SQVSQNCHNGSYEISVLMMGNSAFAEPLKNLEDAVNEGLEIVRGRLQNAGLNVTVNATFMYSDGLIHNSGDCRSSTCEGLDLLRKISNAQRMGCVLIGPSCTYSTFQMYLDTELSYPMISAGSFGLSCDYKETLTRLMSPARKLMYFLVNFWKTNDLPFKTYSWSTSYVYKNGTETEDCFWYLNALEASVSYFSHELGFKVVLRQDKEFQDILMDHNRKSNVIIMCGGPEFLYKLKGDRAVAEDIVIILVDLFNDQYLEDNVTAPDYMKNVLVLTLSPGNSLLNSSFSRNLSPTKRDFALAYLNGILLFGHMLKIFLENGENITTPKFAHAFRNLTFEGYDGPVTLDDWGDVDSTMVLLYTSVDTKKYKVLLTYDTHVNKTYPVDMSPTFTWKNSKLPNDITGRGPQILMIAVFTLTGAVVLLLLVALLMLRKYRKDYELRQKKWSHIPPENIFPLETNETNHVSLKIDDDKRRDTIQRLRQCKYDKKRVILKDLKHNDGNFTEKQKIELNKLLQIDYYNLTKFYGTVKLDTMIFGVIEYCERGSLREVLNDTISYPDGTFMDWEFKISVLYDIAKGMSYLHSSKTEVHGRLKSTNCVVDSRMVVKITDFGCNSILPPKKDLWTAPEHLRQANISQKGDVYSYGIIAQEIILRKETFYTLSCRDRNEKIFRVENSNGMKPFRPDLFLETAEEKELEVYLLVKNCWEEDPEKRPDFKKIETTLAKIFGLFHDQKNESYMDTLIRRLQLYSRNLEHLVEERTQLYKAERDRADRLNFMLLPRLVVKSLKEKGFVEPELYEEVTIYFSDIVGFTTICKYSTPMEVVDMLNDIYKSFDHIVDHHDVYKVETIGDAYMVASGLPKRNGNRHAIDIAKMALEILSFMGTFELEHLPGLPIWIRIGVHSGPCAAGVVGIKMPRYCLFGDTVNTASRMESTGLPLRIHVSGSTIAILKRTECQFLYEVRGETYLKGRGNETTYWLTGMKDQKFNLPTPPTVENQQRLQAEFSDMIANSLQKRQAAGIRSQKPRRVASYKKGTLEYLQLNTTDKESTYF
Protocol: A competitive ELISA for detection of cGMP was used to characterize native GC-C function in the produced GC-C-expressing cell line. Cells expressing GC-C were maintained under standard cell culture conditions in DMEM supplemented with 10% fetal bovine serum, glutamine and HEPES and grown in T175 cm flasks. For the ELISA, the cells were plated into coated 96-well plates (poly-D-lysine).
(§1) Cells were washed twice with serum-free medium and incubated with 1 mM IBMX for 30 minutes. Desired activators (i.e., guanylin, 0.001-40 μM) were then added to the cells and incubated for 30-40 minutes. Supernatant was removed, and the cells were washed with TBS buffer. […]. This was followed by lysis with 0.1N HCl and a freeze/thaw cycle at −20° C./room temperature. Defrosted lysates (samples were spun in Eppendorf tubes at 10,000 rpm) were centrifuged to pellet cell debris. The cleared supernatant lysate was then transferred to ELISA plates.
All of the following steps were performed at room temperature, unless otherwise indicated. ELISA plates were coated with anti-IgG antibodies in coating buffer (Na-carbonate/bi-carbonate buffer, 0.1 M final, pH 9.6) overnight at 4° C. […] The absorbance was then read at 405 nm on a SAFIRE^2™ plate reader (Tecan).
Maximum absorbance was seen when no cell lysate was used in the ELISA (Control).

human GC-C [2] = biological target: T1, human GC-C; experiment: Direct Cyclic GMP Enzyme Immunoassay Kit, cGMP in the produced GC-C-expressing cell line (guanylin dose-response and comparison with parental cells); type: cell-based
Protocol: Populations of cells were tested using functional criteria. The Direct Cyclic GMP Enzyme Immunoassay Kit (Cat. 900-014; AssayDesigns, Inc.) was used according to manufacturer's instructions: (http://www.assaydesigns.com/objects/catalog//product/extras/900-014.pdf). Cells were tested at 4 different densities in 96- or 384-well plates and responses were analyzed. The following conditions were used for the GC-C-expressing cell lines of the invention:
as §1
The cGMP level in the produced GC-C-expressing cell line treated with 100 nM guanylin was also compared to that of parental cell line control samples not expressing GC-C (not shown) using the Direct Cyclic GMP Enzyme Immunoassay Kit (Cat. 900-014; AssayDesigns, Inc.).
For guanylin dose-response experiments, cells of the produced GC-C-expressing cell line, plated at densities of 20,000, 40,000, 60,000, 80,000, 120,000 and 160,000 cells/well in a 96-well plate, were challenged with increasing concentration of guanylin for 30 minutes (see FIG. 2). […] 140(4):1800-1806 (1999)), indicating the potency of the clone.

other cell lines = details: low concentrations of guanylin, Forte et al., Endocr. 140(4):1800-1806 (1999); cited from earlier work
[3] = biological target: human guanylate cyclase-C (GC-C) (human) (UniProt P25092); experiment: cell-based or functional assay
Sequence of human guanylate cyclase-C (GC-C) (human) (P25092 24-1073 F281L limits assumed): as the sequence (P25092 24-1073 F281L) above

CC[C@H](C)[C@@H]1NC(=O)[C@H](CCC(=O)O)NC(=O)[C@@H](NC(=O)[C@@H](NC(=O)CNC(=O)[C@@H]2CCCN2)[C@@H](C)O)CSSC[C@@H]2NC(=O)[C@H](C)NC(=O)[C@H](C)NC(=O)[C@H](Cc3ccc(O)cc3)NC(=O)[C@H](C)NC(=O)[C@H](CSSC[C@@H](C(=O)O)NC(=O)CNC(=O)[C@H]([C@@H](C)O)NC2=O)NC1=O [guanylin] (H-PGTCEICAYAACTGC-OH; disulfide 4-12, 7-15 (inferred); N-terminus and C-terminus assumed)
absorbance (corresponding to cGMP levels) vs control without cell lysate (human GC-C [1]): Reduction in absorbance | absorbance (corresponding to cGMP levels) vs parental cells not expressing GC-C (human GC-C [2]; 100 nM guanylin, compared with parental cells treated and untreated with guanylin): greater reduction in absorbance | EC50 (human GC-C [2]; produced GC-C-expressing 293T cell line, guanylin 30 minutes, non-linear regression, GraphPad Prism 5.0): ~1.1 nM | level of cGMP (human GC-C [2]; produced GC-C-expressing cell line treated with low concentrations of guanylin): 6 pmol/mL | level of cGMP previously reported (other cell lines): 3.5 pmol/mL

guanylin (peptide)
EC50 of guanylin dose-response, cellular cGMP level (absorbance, Direct Cyclic GMP Enzyme Immunoassay Kit) [3]: 1.1 nM | level of cGMP in the GC-C-expressing cell line treated with low concentrations of guanylin [3]: 6 pmol/mL
